Laboratory results reported in patent US20250082643A1, “COMBINATION THERAPY FOR PIK3CA-ASSOCIATED DISEASES OR DISORDERS” (Faeth Therapeutics, Inc., priority 2021, published 2025).

Assays:
[1] = tested on: solid tumors with PIK3CA mutations with or without PTEN loss; conditions: human, in vivo
Excerpt: The primary objective of the study is to evaluate the safety, feasibility, and pharmacokinetic impact of intrasubject modulated dosing for serabelisib when co-administered with a study ISD in a pilot cohort of subjects with solid tumors with PIK3CA mutations with or without PTEN loss. […] For the expansion cohort, nab-paclitaxel will also be administered with serabelisib when co-administered with a study ISD. […] FIG. 4 depicts a representation of the study cohorts of the clinical trial using serabelisib in combination with an insulin suppressing diet and nab-paclitaxel in subjects with cancer.
Cohort 1a (Dose Modification): The primary objective of the study is to evaluate the safety, compliance, and pharmacokinetic (PK) impact of intrasubject modulated dosing for serabelisib in combination with a Study ISD in a pilot cohort. […] Endpoints include: ORR, defined as the proportion of subjects who have best overall response of either CR or PR, as determined by each site; Progression free survival (PFS), defined as the time from date of first dose of Study Drug (Visit 1) to the date of first evidence of disease progression or death from any cause (whichever occurs first); Overall survival (OS) and landmark survival; Duration of response (DoR); and Disease control rate (DCR; CR+PR+stable disease [SD]). […]

[2] = tested on: other class I PI3K isoforms; conditions: relative to PI3Kα
[3] = molecular target: mammalian target of rapamycin (mTOR) (Homo sapiens, UniProt P42345); conditions: relative to PI3Kα
[4] = molecular target: PI3Kα (Homo sapiens, UniProt P42336); conditions: biochemical assays; read-out: half maximal inhibitory concentration (IC50); cited from earlier work
[5] = tested on: downstream signaling of PI3K; conditions: cell lines with hyperactivation of the pathway; cited from earlier work
[6] = tested on: a range of cell lines; conditions: cited from earlier work
[7] = tested on: human breast cancer cells harboring mutations in the PIK3CA gene; conditions: mouse xenograft, PIK3CA-mutated human breast cancer cells; cited from earlier work
[8] = tested on: renal cell carcinoma xenograft with mutations in the PTEN gene; conditions: cited from earlier work
[9] = cited from earlier work
[10] = in vitro metabolism, across test species; cited from earlier work
[11] = molecular target: CYP3A4 (Homo sapiens, UniProt P08684); conditions: normalized for liver content; cited from earlier work
[12] = tested on: CYP3A4/5; conditions: cited from earlier work
[13] = molecular target: CYP2D6 (Homo sapiens, UniProt P10635); conditions: cited from earlier work
[14] = molecular target: CYP2C19 (Homo sapiens, UniProt P33261); conditions: cited from earlier work
[15] = molecular target: CYP2C9 (Homo sapiens, UniProt P11712); conditions: cited from earlier work
[16] = molecular target: CYP2C8 (Homo sapiens, UniProt P10632); conditions: cited from earlier work
[17] = molecular target: CYP2B6 (Homo sapiens, UniProt P20813); conditions: cited from earlier work
[18] = molecular target: CYP1A2 (Homo sapiens, UniProt P05177); conditions: cited from earlier work
[19] = tested on: CYP1A2; conditions: cited from earlier work
[20] = tested on: CYP2B6; conditions: cited from earlier work
[21] = tested on: CYP3A4/5; conditions: cited from earlier work; remark: listed apart in the source
[22] = molecular target: organic cation transporter (OCT) 1 (Homo sapiens, UniProt O15245); conditions: cited from earlier work
[23] = molecular target: OCT2 (Homo sapiens, UniProt O15244); conditions: cited from earlier work
[24] = molecular target: breast cancer resistance protein (BCRP) (Homo sapiens, UniProt Q9UNQ0); conditions: cited from earlier work
[25] = tested on: solid tumors; conditions: cited from earlier work
[26] = oral administration, various animal species

CYP2C9, sequence (P11712 whole entry): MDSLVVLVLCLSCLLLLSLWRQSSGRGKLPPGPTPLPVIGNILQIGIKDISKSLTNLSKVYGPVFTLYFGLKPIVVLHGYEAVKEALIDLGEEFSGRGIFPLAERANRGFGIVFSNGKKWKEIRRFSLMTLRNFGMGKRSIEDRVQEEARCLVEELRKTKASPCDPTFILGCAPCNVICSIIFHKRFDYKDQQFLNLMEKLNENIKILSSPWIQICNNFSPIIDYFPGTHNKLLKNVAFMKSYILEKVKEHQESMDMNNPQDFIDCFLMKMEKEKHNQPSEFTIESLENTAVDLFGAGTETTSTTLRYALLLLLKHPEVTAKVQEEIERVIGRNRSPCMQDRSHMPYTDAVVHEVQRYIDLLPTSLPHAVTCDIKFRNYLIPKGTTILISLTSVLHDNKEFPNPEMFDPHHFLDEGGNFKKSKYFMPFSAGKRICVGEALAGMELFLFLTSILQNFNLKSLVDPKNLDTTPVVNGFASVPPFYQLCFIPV
organic cation transporter (OCT) 1, sequence (O15245 whole entry): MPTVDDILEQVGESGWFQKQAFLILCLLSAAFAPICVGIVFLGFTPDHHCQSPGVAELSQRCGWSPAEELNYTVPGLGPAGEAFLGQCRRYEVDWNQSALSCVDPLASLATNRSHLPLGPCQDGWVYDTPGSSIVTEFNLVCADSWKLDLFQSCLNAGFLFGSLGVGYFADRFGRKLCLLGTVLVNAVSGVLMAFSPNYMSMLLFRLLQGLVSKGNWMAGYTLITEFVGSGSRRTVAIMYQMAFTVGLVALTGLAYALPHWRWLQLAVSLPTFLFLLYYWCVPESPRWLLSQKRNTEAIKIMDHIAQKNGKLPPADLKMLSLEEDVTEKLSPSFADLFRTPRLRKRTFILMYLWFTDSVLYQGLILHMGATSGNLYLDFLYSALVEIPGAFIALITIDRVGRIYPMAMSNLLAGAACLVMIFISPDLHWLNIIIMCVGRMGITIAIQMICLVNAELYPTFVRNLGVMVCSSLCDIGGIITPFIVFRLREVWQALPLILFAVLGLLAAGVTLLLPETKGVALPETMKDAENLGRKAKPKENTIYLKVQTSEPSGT
CYP2C8, sequence (P10632 whole entry): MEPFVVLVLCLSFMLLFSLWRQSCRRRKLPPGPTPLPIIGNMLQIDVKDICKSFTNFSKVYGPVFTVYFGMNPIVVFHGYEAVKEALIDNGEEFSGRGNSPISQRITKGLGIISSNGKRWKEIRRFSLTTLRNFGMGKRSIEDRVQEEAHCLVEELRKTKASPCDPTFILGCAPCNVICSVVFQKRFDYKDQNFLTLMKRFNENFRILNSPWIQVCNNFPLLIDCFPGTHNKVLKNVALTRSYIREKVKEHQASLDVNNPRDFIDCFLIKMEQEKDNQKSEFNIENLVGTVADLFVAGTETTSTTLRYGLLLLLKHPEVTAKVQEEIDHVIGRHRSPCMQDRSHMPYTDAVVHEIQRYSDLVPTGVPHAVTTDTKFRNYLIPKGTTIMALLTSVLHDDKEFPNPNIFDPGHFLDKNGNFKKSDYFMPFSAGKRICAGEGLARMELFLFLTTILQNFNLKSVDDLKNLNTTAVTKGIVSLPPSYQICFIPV
PI3Kα, sequence (P42336 whole entry): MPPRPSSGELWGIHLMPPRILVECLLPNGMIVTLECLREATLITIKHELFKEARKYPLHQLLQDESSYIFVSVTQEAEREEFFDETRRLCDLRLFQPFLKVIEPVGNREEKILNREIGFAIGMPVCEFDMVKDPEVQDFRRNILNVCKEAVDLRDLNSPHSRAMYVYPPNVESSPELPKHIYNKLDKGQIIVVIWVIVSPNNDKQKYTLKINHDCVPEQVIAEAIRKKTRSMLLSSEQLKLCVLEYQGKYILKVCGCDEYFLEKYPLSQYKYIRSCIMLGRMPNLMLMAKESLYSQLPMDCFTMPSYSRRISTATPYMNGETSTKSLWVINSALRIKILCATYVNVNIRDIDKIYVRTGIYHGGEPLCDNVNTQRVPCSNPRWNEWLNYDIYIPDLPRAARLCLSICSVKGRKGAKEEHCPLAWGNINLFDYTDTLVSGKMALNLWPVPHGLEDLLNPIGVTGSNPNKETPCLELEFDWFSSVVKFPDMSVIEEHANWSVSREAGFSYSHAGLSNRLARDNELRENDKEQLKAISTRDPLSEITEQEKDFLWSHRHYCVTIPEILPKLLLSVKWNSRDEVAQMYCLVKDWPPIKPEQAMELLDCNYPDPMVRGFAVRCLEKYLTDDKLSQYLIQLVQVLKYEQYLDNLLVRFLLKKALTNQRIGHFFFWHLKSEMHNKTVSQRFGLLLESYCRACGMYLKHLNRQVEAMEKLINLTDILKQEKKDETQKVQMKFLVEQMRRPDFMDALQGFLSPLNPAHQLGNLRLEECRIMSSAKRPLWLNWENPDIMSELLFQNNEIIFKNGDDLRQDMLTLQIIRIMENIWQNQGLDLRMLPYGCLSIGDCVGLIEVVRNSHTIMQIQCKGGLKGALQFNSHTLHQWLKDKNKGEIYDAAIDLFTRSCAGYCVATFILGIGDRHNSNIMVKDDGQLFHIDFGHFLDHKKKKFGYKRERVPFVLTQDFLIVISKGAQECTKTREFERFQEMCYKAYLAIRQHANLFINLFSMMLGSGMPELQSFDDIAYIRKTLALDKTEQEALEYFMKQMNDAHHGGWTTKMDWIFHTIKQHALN
PI3Kα, sequence (P27986 whole entry partner): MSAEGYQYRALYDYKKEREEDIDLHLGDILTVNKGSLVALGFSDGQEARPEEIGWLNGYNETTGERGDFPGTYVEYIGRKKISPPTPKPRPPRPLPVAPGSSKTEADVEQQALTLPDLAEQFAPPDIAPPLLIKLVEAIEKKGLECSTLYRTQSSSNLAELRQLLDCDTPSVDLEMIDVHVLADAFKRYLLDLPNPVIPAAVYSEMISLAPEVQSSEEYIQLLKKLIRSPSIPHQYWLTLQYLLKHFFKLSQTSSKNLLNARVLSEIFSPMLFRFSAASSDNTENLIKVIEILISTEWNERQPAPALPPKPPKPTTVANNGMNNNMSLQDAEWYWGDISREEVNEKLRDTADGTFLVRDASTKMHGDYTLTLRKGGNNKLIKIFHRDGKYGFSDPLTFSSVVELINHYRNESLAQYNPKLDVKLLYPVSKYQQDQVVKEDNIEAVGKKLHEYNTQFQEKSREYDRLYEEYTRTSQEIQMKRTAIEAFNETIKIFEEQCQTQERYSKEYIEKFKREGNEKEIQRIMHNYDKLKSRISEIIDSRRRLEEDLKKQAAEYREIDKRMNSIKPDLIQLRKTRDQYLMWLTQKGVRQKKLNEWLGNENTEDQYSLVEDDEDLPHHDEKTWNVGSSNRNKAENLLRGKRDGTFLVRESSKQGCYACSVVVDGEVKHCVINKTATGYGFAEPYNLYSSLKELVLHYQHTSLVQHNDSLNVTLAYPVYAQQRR
CYP3A4, sequence (P08684 whole entry): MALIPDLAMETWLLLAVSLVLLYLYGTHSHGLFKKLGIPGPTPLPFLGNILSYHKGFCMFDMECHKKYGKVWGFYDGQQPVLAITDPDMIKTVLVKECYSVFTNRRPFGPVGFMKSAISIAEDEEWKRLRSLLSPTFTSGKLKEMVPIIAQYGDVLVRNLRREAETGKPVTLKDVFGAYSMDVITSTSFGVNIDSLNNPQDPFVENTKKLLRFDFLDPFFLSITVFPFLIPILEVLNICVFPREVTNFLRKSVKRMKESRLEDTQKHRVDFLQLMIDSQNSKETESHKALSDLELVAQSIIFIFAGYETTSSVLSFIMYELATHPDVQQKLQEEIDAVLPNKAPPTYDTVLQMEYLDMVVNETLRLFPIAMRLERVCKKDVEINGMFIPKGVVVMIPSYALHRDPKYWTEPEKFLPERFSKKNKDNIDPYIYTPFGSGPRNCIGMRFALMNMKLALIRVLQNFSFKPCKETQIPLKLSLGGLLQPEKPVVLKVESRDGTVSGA
CYP2C19, sequence (P33261 whole entry): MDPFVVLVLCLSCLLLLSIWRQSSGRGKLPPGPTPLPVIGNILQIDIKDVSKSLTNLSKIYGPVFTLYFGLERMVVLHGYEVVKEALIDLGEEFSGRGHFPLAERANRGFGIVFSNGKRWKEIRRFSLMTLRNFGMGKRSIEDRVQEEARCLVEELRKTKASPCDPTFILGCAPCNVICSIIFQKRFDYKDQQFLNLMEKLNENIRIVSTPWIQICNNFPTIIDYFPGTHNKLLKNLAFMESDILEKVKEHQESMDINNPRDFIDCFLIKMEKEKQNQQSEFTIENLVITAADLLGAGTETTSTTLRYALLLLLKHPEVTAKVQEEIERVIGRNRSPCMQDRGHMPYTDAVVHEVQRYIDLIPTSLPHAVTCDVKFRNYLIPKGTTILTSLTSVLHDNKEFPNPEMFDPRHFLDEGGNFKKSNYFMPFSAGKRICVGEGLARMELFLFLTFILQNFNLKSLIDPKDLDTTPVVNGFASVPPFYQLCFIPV
CYP1A2 (Homo sapiens, UniProt P05177), sequence (P05177 whole entry): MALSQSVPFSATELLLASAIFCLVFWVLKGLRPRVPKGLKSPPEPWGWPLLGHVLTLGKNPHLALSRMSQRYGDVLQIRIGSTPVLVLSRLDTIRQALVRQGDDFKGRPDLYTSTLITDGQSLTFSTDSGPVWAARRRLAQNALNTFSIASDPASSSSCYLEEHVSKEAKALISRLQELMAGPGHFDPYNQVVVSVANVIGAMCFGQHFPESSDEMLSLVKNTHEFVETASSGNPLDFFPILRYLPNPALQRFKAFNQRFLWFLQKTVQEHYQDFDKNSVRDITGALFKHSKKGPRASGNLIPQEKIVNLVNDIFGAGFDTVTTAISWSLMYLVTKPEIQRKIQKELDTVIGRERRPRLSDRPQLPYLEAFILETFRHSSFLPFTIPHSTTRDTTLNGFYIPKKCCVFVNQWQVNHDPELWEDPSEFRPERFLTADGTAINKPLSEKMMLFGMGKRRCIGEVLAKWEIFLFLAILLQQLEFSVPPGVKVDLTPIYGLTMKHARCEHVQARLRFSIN

## Nc1nc2cc(-c3ccc4ncc(C(=O)N5CCOCC5)n4c3)ccc2o1 [serabelisib, 6-(2-Aminobenzo[d]oxazol-5-yl) imidazo[1,2-a]pyridine-3-yl morpholino methanone]
[1]
  drug accumulation between dosing cycles: No meaningful drug accumulation
[2]
  selectivity over other class I PI3K isoforms: > 50 fold
[3]
  selectivity over mTOR: > 50 fold
[4]
  IC50: 20 nM
[5]
  downstream signaling of PI3K: blocks downstream signaling of PI3K
[6]
  antiproliferative activity: demonstrates antiproliferative activity
[7]
  tumor growth inhibition: strong tumor growth inhibition
[8]
  efficacy on xenograft: no efficacy
[9]; following oral dosing
  tissue distribution of radiolabeled drug: well distributed to all tissues
[9]; [26]
  absorption: rapid absorption
  bioavailability: high bioavailable
[9]; urine and feces
  excretion: majority of the drug is excreted in urine and feces as the parent compound
[10]
  unique human metabolite: no unique human metabolite was identified
[11]
  share of metabolism by CYP3A4: 72%
[12]
  inhibition of CYP3A4/5: low potential for inhibition
[13]
  inhibition of CYP2D6: low potential for inhibition
[14]
  inhibition of CYP2C19: low potential for inhibition
[15]
  inhibition of CYP2C9: low potential for inhibition
[16]
  inhibition of CYP2C8: low potential for inhibition
[17]
  inhibition of CYP2B6: low potential for inhibition
[18]
  inhibition of CYP1A2: low potential for inhibition
[19]
  induction of CYP1A2 activity: does not induce
[20]
  induction of CYP2B6 activity: does not induce
[21]
  induction of CYP3A4/5 activity: does not induce
[22]
  inhibition of OCT1: inhibitor
[23]
  inhibition of OCT2: inhibitor
[24]
  inhibition of BCRP: inhibitor
[25]; 3CDW cohorts
  subjects with related serious adverse events (SAEs): 7%
[25]; Phase 1 study, intermittent 3CDW schedule
  MTD: 900 mg
[25]; across all doses and regimens
  related adverse event: decreased appetite: 23%
  related adverse event: diarrhea: 31%
  related adverse event: hyperglycemia: 37%
  related adverse event: increased aspartate aminotransferase (AST): 20%
  related adverse event: nausea: 50%
  related adverse event: vomiting: 38%
[25]; dose escalated from 900 mg to 1200 mg, 3CDW regimen
  subjects with gastrointestinal dose-limiting toxicity (DLT): 2 of 3
[25]; human, in vivo
  PK profile: linear PK profile
[25]; prior serabelisib clinical trials
  cases of drug-induced liver injury (DILI): no cases of DILI have been reported
[25]; results from skin biopsy samples
  doses giving biologically active exposures: > 200 mg
